A melting point compilation (Tetko et al.)

With `O=C1OC(=O)c2c(F)cccc21` the melting point was 159 to 163 °C.
For `Nc1cc(C(Cl)=C(Cl)Cl)c(S(N)(=O)=O)cc1S(N)(=O)=O`, the melting point was 203 °C.
In the case of `OC[C@H]1O[C@H](CO)[C@@H](O)[C@@H]1O`, the melting point is reported as 100 to 103 °C.
For `CSc1n[nH]c(N)c1C(N)=O`, the melting point was 176 °C.
Work on `Cc1c(Cl)c(Cl)cc(Cl)c1Cl` yielded a melting point of 93.5 °C.
For `N#Cc1cc([N+](=O)[O-])cc(Br)c1N`, the melting point was 188 °C.
In the case of `CCN(CC)c1ccc(N=C=S)cc1`, the melting point is reported as 32 °C.
`O=C(OCCO)c1ccccc1` showed a melting point of 45 °C.
For `C/C(OCCc1ccc([N+](=O)[O-])cc1)=C(\C#N)c1ccccc1`, the melting point was 138 °C.
Compound `C=CCNC(=O)C(C(F)(F)F)C(F)(F)F` has a melting point of 117 °C.
In the case of `Ic1ccc(I)c(I)c1I`, the melting point is reported as 136 °C.
`COc1cccc2c1ccn2C` gave a melting point of 89 to 91 °C.
For `NC(=O)NCCC[C@H](N)C(=O)O`, the melting point was 236 °C.
`Cc1ccc2c(c1)C(=O)CC2` showed a melting point of 58 °C.
For `CC#CCCCCCCCC`, the melting point was -30.1 °C.
For `Cc1noc(-c2ccc(C=O)cc2)n1`, the melting point was 133 to 135 °C.
Work on `O=C1OC(c2ccccc2)=NC1=Cc1ccc(Br)cc1` yielded a melting point of 192 to 193 °C.
`CC(C(=O)NCCO)c1ccc(-c2ccccc2)c(F)c1` (stereo not drawn) gave a melting point of 94 to 96 °C.
`CC(O)CN(CCO)CCO` (stereo not drawn) gave a melting point of 31.5 to 36 °C.
With `CC(=O)OC1CCC2(C)C(=CCC3C2CCC2(C)C3CCC2C2(CBr)OCCO2)C1` (stereo not drawn) the melting point was 170 to 172 °C.
`NS(=O)(=O)c1ccc(SCCCCO)s1` showed a melting point of 48.5 °C.
Work on `Cc1nc(=O)c2ccccc2[nH]1` yielded a melting point of 232 °C.
Compound `O=C(Nc1ccccc1)C(c1ccccc1)c1ccccc1` has a melting point of 177 °C.
Work on `Clc1ccc(OCc2ccccc2)cc1` yielded a melting point of 70 to 72 °C.
With `O=C(c1ccc(Cl)cc1)C(Br)c1ccccc1` (stereo not drawn) the melting point was 65 to 66 °C.
Work on `Fc1cc(Br)cc(Br)c1N=C=S` yielded a melting point of 50 to 51 °C.
In the case of `O=C(Nc1ccc([N+](=O)[O-])cc1)C(C(F)(F)F)(C(F)(F)F)C(F)(F)F`, the melting point is reported as 280 to 282 °C.
For `Nc1ccc(I)cc1C(=O)O`, the melting point was 219 to 221 °C.
In the case of `c1ccc2c(c1)-c1ccccc1C2c1ccncc1`, the melting point is reported as 142 to 145 °C.
With `CC(C)c1ccc(C=CC(=O)O)cc1` the melting point was 157 to 161 °C.
Work on `CCOC(=O)CNc1cc(Cl)c([N+](=O)[O-])cc1[N+](=O)[O-]` yielded a melting point of 146 °C.
For `COc1ccc(NS(=O)(=O)c2ccc(N)cc2)nn1`, the melting point was 182 °C.
Work on `FC(F)(F)c1cc(-c2ccc3c(c2)OCO3)n[nH]1` yielded a melting point of 177 to 179 °C.
Work on `COc1ccc2c3c1OC1C(=O)CCC4(O)C(C2)N(C)CCC314` (stereo not drawn) yielded a melting point of 219 °C.
In the case of `CC(C)C(=O)C(C)C`, the melting point is reported as -69 °C.
Work on `CC(=O)c1ccc(O)c(C(F)(F)F)c1` yielded a melting point of 176 °C.
In the case of `CCOC(=O)c1c(SC)nn(C(=O)c2cccc([N+](=O)[O-])c2)c1N`, the melting point is reported as 153 °C.
For `O=S(=O)(O)CC(O)CNC(CO)(CO)CO` (stereo not drawn), the melting point was 220 to 221 °C.
Work on `CCCOCCO` yielded a melting point of -70 °C.
`CC(=O)C(F)(F)F` gave a melting point of -78 °C.
Work on `CC(=O)c1c(C(C)C)cc(C(C)C)cc1C(C)C` yielded a melting point of 87 °C.
With `C=COC=C` the melting point was -101 °C.
In the case of `CC(=O)c1ccc(OCc2ccc(F)cc2)c([N+](=O)[O-])c1`, the melting point is reported as 105 to 107 °C.
With `Cc1c(S(=O)(=O)c2ccc(Cl)cc2)csc1C(=O)O` the melting point was 252 to 256 °C.
With `CCOC(=O)C(=O)c1cc(C(=O)C(=O)OCC)c([N+](=O)[O-])cc1[N+](=O)[O-]` the melting point was 118 °C.
For `CCOC(=O)CCCCCCCCCCCCC(=O)OCC`, the melting point was 28 to 31 °C.
Work on `CCOC(=O)c1cnn(-c2ccc(N)cc2)c1C` yielded a melting point of 91 to 92 °C.
With `CC(C)(C)c1ccc(-c2ccc(Br)cc2)cc1` the melting point was 142 °C.
For `CCNCCS(=O)(=O)c1ccc(C)cc1`, the melting point was 42 to 45 °C.
Work on `COc1cc2c(cc1C)C(Cl)C2` (stereo not drawn) yielded a melting point of 41 °C.
In the case of `NNC(=O)c1cc2cc(OCc3ccccc3)ccc2[nH]1`, the melting point is reported as 219 to 221 °C.
In the case of `CC12CCC3C(CCC4CC(CC(=O)O)=CCC43C)C1CCC2=O` (stereo not drawn), the melting point is reported as 175 to 178 °C.
Compound `CC(=O)Oc1c(-c2ccc(-c3[nH]c4cc([N+](=O)[O-])ccc4c3OC(C)=O)cc2)[nH]c2cc([N+](=O)[O-])ccc12` has a melting point of 280 °C.
Work on `O=C(NC1Cc2ccccc21)c1ccccc1` (stereo not drawn) yielded a melting point of 157 °C.
For `Cc1ccc(-c2cc(N)n(-c3ccccc3)n2)cc1`, the melting point was 173 to 176 °C.
In the case of `O=C(O)c1c(C(F)(F)F)ccnc1F`, the melting point is reported as 92 °C.
For `CC(=O)NC(=O)NC(C)=O`, the melting point was 154 °C.
`O=C(O)C1CCC1C(=O)O` (stereo not drawn) gave a melting point of 131 °C.
Compound `COC(=O)c1c(Cl)cccc1Cl` has a melting point of 28 °C.
`CCCCCCCCCCC#N` gave a melting point of -6 °C.
In the case of `CC(=O)Nc1ccc(-c2cc(C(=O)O)c3ccccc3n2)cc1`, the melting point is reported as 274 to 276 °C.
For `O=C(c1ccccc1)c1ccsc1C(=O)O`, the melting point was 152 °C.
Work on `CN1C2CCCC1CC(=O)C2` yielded a melting point of 63 to 65 °C.
`O=S1OCC2C(CO1)C1(Cl)C(Cl)=C(Cl)C2(Cl)C1(Cl)Cl` (stereo not drawn) gave a melting point of 109 °C.
`COc1ccc(F)c(F)c1O` gave a melting point of 46 °C.
With `OC12CCCC1c1ccccc12` (stereo not drawn) the melting point was 66 °C.
Work on `COc1ccc(-c2cc(C(F)(F)F)nc(N)n2)cc1` yielded a melting point of 191 to 194 °C.
`N#CCc1cc(F)cc(F)c1` gave a melting point of 35 °C.
`N#Cc1c(O)nsc1Nc1ccccc1Cl` gave a melting point of 100 °C.
In the case of `NC(=O)c1ccc(F)cc1C(F)(F)F`, the melting point is reported as 136 °C.
For `CC(C)Nc1ccc(C#N)cc1[N+](=O)[O-]`, the melting point was 113 to 115 °C.
With `COc1ccccc1-c1ccc(C=CC(=O)c2ccco2)o1` the melting point was 96 to 98 °C.
`CCN1CCCC1CNC(=O)c1cc(S(=O)(=O)CC)ccc1OC` (stereo not drawn) gave a melting point of 182 °C.
`CC12CCCC1C1CCC3CCCCC3(C)C1CC2` (stereo not drawn) showed a melting point of 50.2 °C.
With `CC(=O)N1CCCCC1` the melting point was -13.4 °C.
In the case of `O=Cc1ccc(O)c(C(=O)O)c1`, the melting point is reported as 250 °C.
Work on `CCCCOC(=O)C=CC(=O)OCCCC` yielded a melting point of -85 °C.
With `CCC(C)OC(C)CC` (stereo not drawn) the melting point was -100 °C.
For `COc1ccc(Cn2cncn2)cc1`, the melting point was 41.5 °C.
Compound `Clc1ccc(CSc2ccc(Cl)cc2)cc1` has a melting point of 75 °C.
`CC(=O)OC1CCC2C3CCC4CC=CCC4(C)C3CCC12C` (stereo not drawn) gave a melting point of 93 to 94 °C.
For `CCC(C)c1cccc(C(C)CC)c1O` (stereo not drawn), the melting point was -42 °C.
For `c1ccc2c(c1)C1c3ccccc3C2c2ccccc21`, the melting point was 254 °C.
With `C=C1CCC2(O)C3Cc4ccc(O)c5c4C2(CCN3CC2CC2)C1O5` (stereo not drawn) the melting point was 189 °C.
`COC(=O)[C@@H]1C[C@@H](O)CN1C(=O)OC(C)(C)C` gave a melting point of 91 to 96 °C.
`CCOC(=O)C1=C(C)N=c2cc3c(cc21)=C(C(=O)OCC)C(C)=N3` showed a melting point of 342 °C.
In the case of `Cc1ccc(-n2c(C)cc(C(=O)CCl)c2C)cc1`, the melting point is reported as 81 to 83 °C.
`Cn1c(=O)c(C2=NNC(=O)C2=NNc2ccc(Br)cc2)c(O)c2ccccc21` showed a melting point of 260 °C.
Compound `CN1CCC23c4c5ccc(O)c4OC2C(=O)CCC3(O)C1C5` (stereo not drawn) has a melting point of 248 °C.
In the case of `CCN(CC)CN1C(=O)C(=Cc2ccco2)SC1=S`, the melting point is reported as 145 °C.
With `FC(F)(F)c1cccc(Br)n1` the melting point was 49.5 °C.
In the case of `Nc1cc(F)c(F)cc1C(=O)O`, the melting point is reported as 182 °C.
Work on `CC(=O)OC1=C(C(C)C)C(=O)C2=C(C1=O)C1(C)CCCC(C)(C)C1C(OC(C)=O)C2OC(C)=O` (stereo not drawn) yielded a melting point of 89 °C.
With `Cc1ccc(C(c2ccc(C)o2)c2cc(I)ccc2O)o1` the melting point was 104 °C.
`COc1ccc(-c2nnc3n2NC(c2ccccc2)S3)cc1` (stereo not drawn) gave a melting point of 134 °C.
In the case of `Ic1ccc(-c2ccc(I)cc2)cc1`, the melting point is reported as 207 °C.
`CC(C)(O)C(N)C(=O)O` (racemic) gave a melting point of 200 to 202 °C.
`C=CCC1(C2C=CCC2)C(=O)NC(=O)NC1=O` (stereo not drawn) showed a melting point of 140 °C.
With `Cc1ccc(C(c2ccc(Br)cc2)c2ccc(C)o2)o1` the melting point was 64 °C.
Compound `CC(=O)SCC(Cc1ccccc1)C(=O)NCC(=O)OCc1ccccc1` (stereo not drawn) has a melting point of 89 °C.
`N#CSCc1c(Cl)cccc1Cl` gave a melting point of 39 to 42 °C.
Work on `Cc1onc(-c2ccccc2)c1I` yielded a melting point of 104 to 105 °C.
`N#C/C(=N\Nc1cc(Cl)c(Cl)cc1Cl)c1nc2ccccc2s1` gave a melting point of 214 °C.
`COc1ccc(Br)cc1CO` showed a melting point of 68 to 73 °C.
Work on `O=C(Nc1ccccc1[N+](=O)[O-])C(F)(F)C(F)(F)C(F)(F)C(F)(F)C(F)(F)C(F)(F)C(F)(F)C(F)(F)F` yielded a melting point of 94 °C.
`Cc1cccc(C)c1NC(=O)CCl` showed a melting point of 148 °C.
Compound `COc1ccc(/C=C(\Oc2ccccc2)c2nc3ccccc3s2)cc1` has a melting point of 151 °C.
With `N[C@@H](Cc1ccc(F)cc1)C(=O)O` the melting point was 253 °C.
For `CC(=O)O[C@H]1C[C@H]2[C@@H]3CCC4CCCC[C@]4(C)[C@H]3CC[C@]2(C)C1` (stereo partly drawn), the melting point was 108 °C.
Work on `COc1ccc(C(=O)Cl)cc1` yielded a melting point of 24.5 °C.
Compound `Cc1ccc(NC(=O)C(C(F)(F)F)C(F)(F)F)cc1C` has a melting point of 189 °C.
Compound `CC(=O)C(=CNc1ccc(C)cc1)Cc1ccccc1` has a melting point of 103 °C.
`Cc1cc(-c2cc(C)n(C)n2)n[nH]1` gave a melting point of 154 to 156 °C.
Compound `COCc1cc(=O)oc2cc(O)c(Cl)cc12` has a melting point of 196 to 198 °C.
`Cc1cc(O)nc(C(C)C)n1` gave a melting point of 173 °C.
`Cc1cc(C(=O)Nc2ccccc2)no1` showed a melting point of 136 to 139 °C.
Work on `O=C(CBr)c1coc2ccccc12` yielded a melting point of 136 to 137 °C.
Compound `c1ccc(-c2ccc(N=C(CNc3ccc(-c4ccccc4)cc3)Nc3ccc(-c4ccccc4)cc3)cc2)cc1` has a melting point of 190 °C.
Work on `CCCC(C)S` (stereo not drawn) yielded a melting point of -169 °C.
With `CC(C)(C)OC(=O)N1Cc2ccccc2C[C@H]1C(=O)O` the melting point was 125 to 126 °C.
In the case of `COC(=O)C=Cc1cccs1`, the melting point is reported as 49 °C.
`Cc1ccc2c3c(c4c(c2c1)CCCC4)CCCC3` showed a melting point of 93 °C.
Compound `Fc1ccc(-c2ccc(F)cc2)cc1` has a melting point of 94.5 °C.
Compound `O=C(/C(=N/O)c1ccccc1)c1ccc2c3c(cccc13)CC2` has a melting point of 204 °C.
Work on `FC(F)(F)c1ccc(Cl)cc1Cl` yielded a melting point of -26 °C.
`O=C(CC(=O)c1ccccc1)c1ccccc1` gave a melting point of 78 °C.
`C=C(C(=O)O)C1CCC2C(=CCC3C(C)(C)C(O)CCC23C)C1` (stereo not drawn) gave a melting point of 218 °C.
Work on `O=C1OC2(c3ccc(Cl)cc3Oc3cc(Cl)ccc32)c2ccccc21` yielded a melting point of 253 to 255 °C.
